According to ChEMBL document CHEMBL1201862, “PubChem BioAssay data set” (2004):
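Method: 48-hour compound exposure of cells in 96-well plates, five concentrations, linear interpolation of endpoints. GI50: concentration for 50% inhibition of growth.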 Active and inactive are the calls of the source. No stated cut-off is given here; in the data, active = GI50 up to about 1.1 µM and inactive = higher.

Columns and labels:
Assay in all cases: NCI-60 cell line screen, 48 h
PC-3 = system: PC-3
SW-620 = system: SW-620
NCI-H460 = system: NCI-H460
786-0 = system: 786-0
SK-MEL-28 = system: SK-MEL-28
UO-31 = system: UO-31
HCT-116 = system: HCT-116
CCRF-CEM = system: CCRF-CEM
IGROV-1 = system: IGROV-1
UACC-62 = system: UACC-62
SK-MEL-5 = system: SK-MEL-5
BT-549 = system: BT-549
U-251 = system: U-251
DU-145 = system: DU-145
TK-10 = system: TK-10
KM12 = system: KM12
SN12C = system: SN12C
NCI-H23 = system: NCI-H23
A549 = system: A549
K562 = system: K562
COLO 205 = system: COLO 205
NCI/ADR-RES = system: NCI/ADR-RES
HOP-92 = system: HOP-92
MDA-N = system: MDA-N
Hs-578T = system: Hs-578T
RXF 393 = system: RXF 393
SNB-19 = system: SNB-19
M14 = system: M14
A498 = system: A498
SF-539 = system: SF-539
SR = system: SR
OVCAR-3 = system: OVCAR-3
MDA-MB-231 = system: MDA-MB-231
MCF7 = system: MCF7
HT-29 = system: HT-29
RPMI-8226 = system: RPMI-8226
ACHN = system: ACHN
NCI-H226 = system: NCI-H226
NCI-H522 = system: NCI-H522
OVCAR-8 = system: OVCAR-8
SNB-75 = system: SNB-75
UACC-257 = system: UACC-257
HCT-15 = system: HCT-15
SK-OV-3 = system: SK-OV-3
SF-268 = system: SF-268
MOLT-4 = system: MOLT-4
EKVX = system: EKVX
CAKI-1 = system: CAKI-1
Malme-3M = system: Malme-3M
OVCAR-5 = system: OVCAR-5
HL-60 = system: HL-60
OVCAR-4 = system: OVCAR-4
SK-MEL-2 = system: SK-MEL-2
SF-295 = system: SF-295
HOP-62 = system: HOP-62
T47D = system: T47D
HCC 2998 = system: HCC 2998
MDA-MB-435 = system: MDA-MB-435
LOX IMVI = system: LOX IMVI

Measured: GI50

O=C(N/N=C\c1ccc([N+](=O)[O-])s1)c1ccncc1
inactive: PC-3 11.6 µM | SW-620 10.8 µM | NCI-H460 6.65 µM | 786-0 6.67 µM | SK-MEL-28 35.3 µM | UO-31 17.2 µM | HCT-116 5.07 µM | CCRF-CEM 6.52 µM | IGROV-1 10.3 µM | UACC-62 10.7 µM | SK-MEL-5 3.25 µM | BT-549 11.3 µM | U-251 17.7 µM | DU-145 20.7 µM | TK-10 23.1 µM | KM12 10 µM | SN12C 8.65 µM | NCI-H23 16.2 µM | A549 16.7 µM | K562 > 10 µM | COLO 205 2.13 µM | NCI/ADR-RES 22.8 µM | HOP-92 15.6 µM | MDA-N 14.1 µM | Hs-578T 15.8 µM | RXF 393 16.9 µM | SNB-19 33.4 µM | M14 11.6 µM | A498 23.4 µM | SF-539 6.28 µM | SR 5.65 µM | OVCAR-3 2.82 µM | MDA-MB-231 18.8 µM | MCF7 3.02 µM | HT-29 4.13 µM | RPMI-8226 5.62 µM | ACHN 18.3 µM | NCI-H226 5.15 µM | NCI-H522 4.75 µM | OVCAR-8 14.7 µM | SNB-75 19.4 µM | UACC-257 14.6 µM | SK-OV-3 38.5 µM | SF-268 13.6 µM | MOLT-4 19.9 µM | EKVX 20.7 µM | CAKI-1 27.9 µM | Malme-3M 8.18 µM | OVCAR-5 29.9 µM | HL-60 2.38 µM | OVCAR-4 15 µM | SK-MEL-2 18.2 µM | SF-295 16.4 µM | HOP-62 14.4 µM | T47D 21.2 µM | HCC 2998 5.71 µM | MDA-MB-435 18.4 µM
5.27 µM: HCT-15

Cc1cc(C)n(C2OC(CO)C(O)C(O)C2O)c(=S)c1C#N (stereo not given)
inactive: PC-3 > 100 µM | SW-620 > 100 µM | NCI-H460 > 100 µM | 786-0 > 100 µM | SK-MEL-28 > 100 µM | UO-31 > 100 µM | HCT-116 > 100 µM | CCRF-CEM > 100 µM | IGROV-1 > 100 µM | UACC-62 > 100 µM | SK-MEL-5 > 100 µM | BT-549 > 100 µM | U-251 > 100 µM | DU-145 > 100 µM | TK-10 > 100 µM | KM12 > 100 µM | SN12C > 100 µM | NCI-H23 > 100 µM | A549 > 100 µM | K562 > 10 µM | COLO 205 > 100 µM | NCI/ADR-RES > 100 µM | HOP-92 > 100 µM | MDA-N > 100 µM | Hs-578T > 100 µM | RXF 393 > 100 µM | SNB-19 > 100 µM | M14 > 100 µM | A498 > 100 µM | SF-539 > 100 µM | SR > 100 µM | OVCAR-3 > 100 µM | MDA-MB-231 > 100 µM | MCF7 > 100 µM | HT-29 > 100 µM | RPMI-8226 > 100 µM | ACHN > 100 µM | NCI-H226 > 100 µM | NCI-H522 > 100 µM | OVCAR-8 > 100 µM | SNB-75 > 100 µM | UACC-257 > 100 µM | SF-268 > 100 µM | MOLT-4 > 100 µM | CAKI-1 > 100 µM | Malme-3M > 100 µM | LOX IMVI > 100 µM | OVCAR-5 > 100 µM | HL-60 > 100 µM | OVCAR-4 > 100 µM | SK-MEL-2 > 100 µM | SF-295 > 100 µM | HOP-62 > 100 µM | T47D > 100 µM | HCC 2998 > 100 µM | MDA-MB-435 > 100 µM
> 100 µM: HCT-15
